The text below walks through data of paper PMC7985297 (Communications Biology, 2021).

The structures appear in SMILES notation. “And” between values parts separate entries of the source, which are not always exact repeats. Identical values can stand only once. “Also recorded” adds a separate entry of the source.

Test [1] deals with Ki-67, PSA and AR in LN95-D3 xenografts. The test is described as follows: Immunohistochemistry of LN95-D3 xenografts (Ki-67, PSA, AR). The format is in vivo, mice. An excerpt:
Fig. 8 Immunohistochemistry of LN95-D3 xenografts. a Representative images showing the histomorphology and expression of Ki-67, PSA, and AR from harvested tumors. Scale bars represent 100 µm. Statistical analysis for b the percentage of Ki-67-positive tumor cells and for the expression of c PSA and d AR. Error bars represent the mean ± s.d.
Sections were cut from formalin-fixed, paraffin-embedded tumor tissue at a thickness of 5 µm, deparaffinized in xylene, and then rehydrated in alcohols and distilled water. Endogenous peroxidase was blocked by incubating with a 3% hydrogen peroxide solution for 5 min. […] PSA was detected using a monoclonal mouse anti-human PSA antibody concentrate (ER-PR8; Dako). A negative control without the primary antibody was included for each sample on the same slide. Antigen was detected with 3,3-diaminobenzidine (DAB) and hematoxylin was used for counterstaining. Images were captured on an Axio Imager M2 microscope (Zeiss) at ×200 magnification. The percentage of Ki-67-positive cells was determined with ImageJ using the Cell Counter plugin. At least 1000 cells were scored from three images of representative tumors for each treatment group. The intensity of DAB staining for PSA was quantified by ImageJ using color deconvolution and measuring the mean gray value for the DAB image, where optical density = log(max intensity/mean intensity), and a max intensity of 255 for an 8-bit image.

For test [2], the target named is T1, human AR NTD (AR1–558) fused to Gal4DBD (Gal4-ARN) (Homo sapiens, UniProt P10275).
T1 construct: construct encoding the human AR1–558 of the NTD fused to a Gal4DBD (Gal4-ARN); expressed in transfected cells; host or cells: LNCaP
T1 sequence (P10275 1-558): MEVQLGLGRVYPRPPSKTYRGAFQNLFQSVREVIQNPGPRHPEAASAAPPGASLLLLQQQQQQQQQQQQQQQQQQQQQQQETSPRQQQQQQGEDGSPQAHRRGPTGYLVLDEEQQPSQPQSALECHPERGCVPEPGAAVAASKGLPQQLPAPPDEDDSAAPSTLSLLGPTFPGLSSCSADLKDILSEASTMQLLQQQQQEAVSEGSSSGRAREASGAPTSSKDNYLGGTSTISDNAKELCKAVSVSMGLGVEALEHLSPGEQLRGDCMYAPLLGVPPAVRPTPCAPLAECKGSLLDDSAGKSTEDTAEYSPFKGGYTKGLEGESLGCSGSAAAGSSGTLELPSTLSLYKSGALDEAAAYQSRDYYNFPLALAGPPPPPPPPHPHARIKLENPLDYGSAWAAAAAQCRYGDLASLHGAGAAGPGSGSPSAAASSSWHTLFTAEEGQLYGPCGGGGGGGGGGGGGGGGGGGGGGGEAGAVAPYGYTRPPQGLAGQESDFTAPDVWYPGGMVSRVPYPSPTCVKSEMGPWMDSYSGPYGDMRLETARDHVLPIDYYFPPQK
As to the kind of experiment: AR NTD transactivation assay (Gal4-ARN) in LNCaP cells. The following applies: EPI-002 25 μM, juglone 20 μM, ATRA 10 μM, 24 h. The format is cell-based. An excerpt:
The remaining putative Pin1-binding sites are within the intrinsically disordered AR NTD that contains transcription activation units, Tau-1 and Tau-5, to mediate androgen-dependent and androgen-independent transactivation, respectively[5],[30]. The loss of AR-LBD shifts the location of transcriptional activity from Tau-1 with androgen, to Tau-5 in the absence of LBD[30].
Error bars show the mean ± s.e.m. *P < 0.05, **P < 0.01, ***P < 0.001; ns not significant.

Test [3] has as its target T2, Gal4-ARN fragments and Gal4-AR234–391 constructs (Homo sapiens, UniProt P10275).
T2 construct: expressed in transfected cells; host or cells: LNCaP
The test is described as follows: Transactivation assay with Gal4-ARN fragments and Gal4-AR234–391 proline to glycine mutants. The format is cell-based. The following applies: juglone 20 µM, IL-6 50 ng/mL, 24 h. As to the method:
(§1) Fig. 3 Pin1 interacts with the AR NTD and regulates transactivation. a, b Transactivation assays performed in LNCaP cells expressing a vector encoding the human AR NTD fused to a Gal4 DNA-binding domain (Gal4-ARN). […] Input samples show Pin1 expression from lysates before the pull-down. i Co-immunoprecipitation assay showing AR protein co-immunoprecipitated with STAT3 from LNCaP cells incubated with EPI-002 (EPI, 35 μM), juglone (JUG, 30 μM), or vehicle (VEH, DMSO), and IL-6 (50 ng/mL) for 6 h. j, k Levels of phosphorylated MAPK (isoforms p44 and p42) and phosphorylated STAT3 (Tyr705 and Ser727) from LNCaP cells pre-treated with juglone (20 µM) and then stimulated with IL-6 (50 ng/mL) for 15 min. Error bars show the mean ± s.e.m. *P < 0.05, **P < 0.01, ***P < 0.001; ns not significant.

Test [4] has as its target T3, Gal4-ARN fragments and Gal4-AR234–391 constructs (Homo sapiens, UniProt P10275, P259G).
T3 construct: expressed in transfected cells; host or cells: LNCaP
The test is described as above. In kind it is cell-based. The following applies: juglone 20 µM, IL-6 50 ng/mL, 24 h. The method, then: as §1

Test [5] deals with T4, Gal4-ARN fragments and Gal4-AR234–391 constructs (Homo sapiens, UniProt P10275, P311G).
T4 construct: expressed in transfected cells; host or cells: LNCaP
Described as above. The following applies: juglone 20 µM, IL-6 50 ng/mL, 24 h. The format is cell-based. As to the method:
as §1

In test [6] the test system is Gal4-ARN fragments and Gal4-AR234–391 constructs. The test is described as above. The following applies: juglone 20 µM, IL-6 50 ng/mL, 24 h. The format is cell-based, human. The method, then: as §1

T3 sequence (P10275 236-393 P259G): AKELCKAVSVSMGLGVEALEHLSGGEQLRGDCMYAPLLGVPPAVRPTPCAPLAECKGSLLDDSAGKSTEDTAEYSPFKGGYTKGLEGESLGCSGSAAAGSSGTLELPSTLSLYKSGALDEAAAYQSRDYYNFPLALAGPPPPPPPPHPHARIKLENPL
T4 sequence (P10275 236-393 P311G): as the sequence (P10275 236-393 P259G) above, with G24P, P76G counted along it

Take `CC1=C(/C=C/C(C)=C/C=C/C(C)=C/C(=O)O)C(C)(C)CCC1` [ATRA, all-trans retinoic acid]: in test [1] (LN95-D3 xenografts), the “effect on number of Ki-67-positive tumor cells” value is recorded as “decreased the number of Ki-67-positive tumor cells in xenografts” and the “levels of AR protein in xenografts (IHC)” value is listed as “decreased slightly”. Moreover, in test [1] (LN95-D3 xenografts, ATRA 5 mg pellet, EPI-7170 30 mg/kg/d, one value per tumor, listed as CMC ATRA), the “percentage of Ki-67-positive tumor cells (Fig. 8b)” value was 8.32% and 15.81% and 16.91%. Besides, the “effect on PSA expression in xenografts (IHC)” value in test [1] (compared to the control) was “decreased”.

Regarding `O=C1C=CC(=O)c2c(O)cccc21` [juglone], in test [2] (IL-6 50 ng/mL), the “effect on IL-6-induced transactivation of AR NTD (Gal4-ARN)” value is “only inhibited IL-6-induced transactivation”. In addition, the “effect on forskolin-induced transactivation of AR NTD (Gal4-ARN)” value in test [2] (forskolin 25 μM) was “only inhibited IL-6-induced transactivation”. For the same compound, the “transactivation, AR234-391 (Fig. 3e)” value in test [3] is 5.441 and 3.73 and 3.732. Besides, the “transactivation, Gal4-AR234–391 P257G (Fig. 3f)” value in test [4] was 5.034 and 6.44 and 8.824. The “transactivation, Gal4-AR234–391 P309G (Fig. 3f)” value in test [5] was 4.289 and 4.331 and 7.708. In test [6], the “effect on IL-6-induced transactivation of Gal4-AR234–391 proline to glycine mutants” value is “inhibited the P257G and P309G mutants to levels that were comparable to wild-type; also recorded: had no effect on the P257G/P309G double mutant”; the “effect on IL-6-induced transactivation of Gal4-AR NTD fragments (construct named in the value)” value is “inhibited transactivation of AR 234–391 and intact AR NTD (1–558); also recorded: only had a modest effect on AR 392–558; also recorded: did not inhibit the activity of Gal4DBD (empty vector) or AR 1–233”; the “transactivation, Gal4DBD (Fig. 3f)” value was 0.951 and 0.829 and 0.839.
